Measurements: PubChem BioAssay AID2060493 (Molecular Pharmacology Branch, DTP, NCI, 2025)

System: 616215-338-R-J1-PDC tumor spheroids, viability
Experiment: Anticancer human tumor 616215-338-R-J1-PDC patient-derived colon adenocarcinoma cell line growth inhibition [GQUAD]
Conditions: spheroids with HUVEC and MSC; for IC50: curve of first compound; for viability, T/C: stronger effect = lower value; active = viability on the fitted dose curve at most 10% of control; inactive = the rest
Source text: DNA G-quadruplex Stabilizer Agents in Combinations in Complex Spheroids
A high-throughput screen of multi-cell type tumor spheroids was designed to identify active combinations of DNA G-quadruplex stabilizer agents and targeted small molecules. Complex spheroids include a stromal component modeled by human endothelial cells (HUVEC) and fibroblasts modeled by human mesenchymal stem cells (MSCs). The concentration ranges selected for each drug and investigational agent were based upon clinically achievable concentrations if the clinical Cmax of the agent was known.
Compounds. The drugs and investigational agents: pidnarulex (CX-5461; NSC782164), APTO-253 (NSC789042), BRACO-19 (NSC847499), peposertib (NSC802822), ceralasertib (NSC780249), elimusertib (NSC800525), camonsertib (NSC841442), AZD-1390 (NSC803789), olaparib (NSC753686), talazoparib (NSC767125), ART-558 (NSC835418), sotorasib (NSC818433), MRTX-1133 (NSC836407), SN-38 (NSC673596), topotecan (NSC609699), etoposide (NSC141540), doxorubicin (NSC123127), gemcitabine (NSC613327), 5-fluorouracil (NSC19893), paclitaxel (NSC125973), vemurafenib (NSC761431), panobinostat (NSC761190), R-306465 (JNJ-16241199; NSC773264), adavosertib (NSC754352), TP-3654 (NSC805149), carboplatin (NSC241240), KSQ-4279 (NSC840948), and staurosporine (NSC755774) were obtained from the National Cancer Institute (NCI) Developmental Therapeutics Program Chemical Repository (34). The FDA-approved anticancer drug set is available from the NCI Developmental Therapeutics Program. […] The stock solutions were prepared in dimethyl sulfoxide (DMSO, Sigma-Aldrich, St. Louis, MO, cat. D2650) at 800-fold the tested concentration and stored at -70 degrees C prior to their use. All drugs and investigational agents were tested over a range starting from a high concentration at or near the clinical Cmax and decreasing in half-log increments. If the clinical Cmax for an agent had not been determined, the highest concentration tested was 10 microM.
2.3 Cell Culture. All cells were maintained in an incubator at 37 degrees C and 5% CO2 with 95% humidity. The PDC lines were cultured according to standard operating procedures established by the NCI PDMR. All PDCs were thawed and cultured in Matrigel-coated flasks prepared with a working solution of 1X Ham's F-12 nutrient mix, without supplementation (Invitrogen, cat. 11765054), 100 U/mL penicillin-streptomycin (Invitrogen, cat. 15140122), and 2.5% Matrigel (Corning Inc., cat. 354248) for the first three passages. The 857933-349-R-J2-PDC line was cultured in 6C/Colon 1B media, which includes advanced DMEM/F-12 (Thermo Fisher Scientific, cat. 12634028), 10 mM HEPES (Thermo Fisher Scientific, cat. 15630080), 1X GlutaMAX supplement (Thermo Fisher Scientific, cat. 35050061), 0.1 mg/mL primocin (InvivoGen, cat. ant-pm-2), 10% defined fetal bovine serum, heat inactivated (HyClone Laboratories Inc., cat. SH30070.03HI), 50% L-WRN conditioned media (ATCC, cat. CRL-3276), 1.25 mM N-Acetyl-L-cysteine (Sigma-Aldrich, cat. A9165), 10 mM nicotinamide (Sigma-Aldrich, cat. N0636), 1X B-27 supplement (Thermo Fisher Scientific, cat. 17504044), 1X N-2 supplement (Thermo Fisher Scientific, cat. 17502048), 10 microM Y-27632 dihydrochloride (Tocris Bioscience, cat. 1254), and 50 ng/mL human EGF recombinant protein (Thermo Fisher Scientific, cat. PHG0311). The 485176-168-R4-J1-PDC line was cultured in Panc media, which includes all 6C/Colon 1B media components plus 100 ng/mL human FGF-10 (Thermo Fisher Scientific, cat. 100-26), 500 nM SB-431542 (Selleckchem, cat. S1067), and gastrin (Tocris, cat. 3006).
[…]

[1] = second compound 0.0316 µM, first compound 0.000999 µM
[2] = second compound 0.0316 µM, first compound 0.00316 µM
[3] = second compound 0.0316 µM, first compound 0.00999 µM
[4] = second compound 0.0316 µM, first compound 0.0316 µM
[5] = second compound 0.0316 µM, first compound 0.0999 µM
[6] = second compound 0.0316 µM, first compound 0.316 µM
[7] = second compound 0.1 µM, first compound 0.000999 µM
[8] = second compound 0.1 µM, first compound 0.00316 µM
[9] = second compound 0.1 µM, first compound 0.00999 µM
[10] = second compound 0.1 µM, first compound 0.0316 µM
[11] = second compound 0.1 µM, first compound 0.0999 µM
[12] = second compound 0.1 µM, first compound 0.316 µM
[13] = second compound 0.316 µM, first compound 0.000999 µM
[14] = second compound 0.316 µM, first compound 0.00316 µM
[15] = second compound 0.316 µM, first compound 0.00999 µM
[16] = second compound 0.316 µM, first compound 0.0316 µM
[17] = second compound 0.316 µM, first compound 0.0999 µM
[18] = second compound 0.316 µM, first compound 0.316 µM
[19] = second compound 1 µM, first compound 0.000999 µM
[20] = second compound 1 µM, first compound 0.00316 µM
[21] = second compound 1 µM, first compound 0.00999 µM
[22] = second compound 1 µM, first compound 0.0316 µM
[23] = second compound 1 µM, first compound 0.0999 µM
[24] = second compound 1 µM, first compound 0.316 µM
[25] = second compound 3.16 µM, first compound 0.000999 µM
[26] = second compound 3.16 µM, first compound 0.00316 µM
[27] = second compound 3.16 µM, first compound 0.00999 µM
[28] = second compound 3.16 µM, first compound 0.0316 µM
[29] = second compound 3.16 µM, first compound 0.0999 µM
[30] = second compound 3.16 µM, first compound 0.316 µM
[31] = second compound 10 µM, first compound 0.000999 µM
[32] = second compound 10 µM, first compound 0.00316 µM
[33] = second compound 10 µM, first compound 0.00999 µM
[34] = second compound 10 µM, first compound 0.0316 µM
[35] = second compound 10 µM, first compound 0.0999 µM
[36] = second compound 10 µM, first compound 0.316 µM
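Also: spheroids exposed to agents for 7 days before readout.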
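For viability, T/C in this document: percent viability relative to DMSO vehicle control wells taken as 100%.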

CC[C@@]1(O)C(=O)OCc2c1cc1n(c2=O)Cc2cc3c(CN(C)C)c(O)ccc3nc2-1 + Cc1cnc(CNC(=O)c2c(=O)c3ccc(N4CCCN(C)CC4)nc3n3c2sc2ccccc23)cn1
< 0.999 nM: IC50 (second compound 0.316 µM) | IC50 (second compound 1 µM) | IC50 (second compound 3.16 µM) | IC50 (second compound 10 µM)
142 nM: IC50 (second compound 0.1 µM)
inactive: viability, T/C [1] 116% | viability, T/C [2] 102% | viability, T/C [3] 92.5% | viability, T/C [4] 94.9% | viability, T/C [5] 87% | viability, T/C [6] 43.7% | viability, T/C [7] 81.5% | viability, T/C [8] 68.1% | viability, T/C [9] 64.2% | viability, T/C [10] 74.8% | viability, T/C [11] 54.1% | viability, T/C [12] 35.4% | viability, T/C [13] 38.5% | viability, T/C [14] 45.3% | viability, T/C [15] 39.2% | viability, T/C [16] 40.5% | viability, T/C [17] 53.4% | viability, T/C [18] 40.2% | viability, T/C [19] 36.9% | viability, T/C [20] 38.4% | viability, T/C [21] 32.4% | viability, T/C [22] 27.7% | viability, T/C [23] 24.9% | viability, T/C [24] 25.3% | viability, T/C [25] 37.1% | viability, T/C [26] 36.5% | viability, T/C [27] 31.6% | viability, T/C [28] 34.2% | viability, T/C [29] 29.3% | viability, T/C [30] 18.5% | viability, T/C [31] 31.9% | viability, T/C [32] 25% | viability, T/C [33] 42.2% | viability, T/C [34] 24.2% | viability, T/C [35] 25.3% | viability, T/C [36] 16.1%
274 nM: IC50 (second compound 0.0316 µM)

CCc1c2c(nc3ccc(O)cc13)-c1cc3c(c(=O)n1C2)COC(=O)[C@]3(O)CC + Cc1cnc(CNC(=O)c2c(=O)c3ccc(N4CCCN(C)CC4)nc3n3c2sc2ccccc23)cn1
5.05 nM: IC50 (second compound 0.1 µM)
inactive: viability, T/C [1] 105% | viability, T/C [2] 79.5% | viability, T/C [3] 47.5% | viability, T/C [4] 30.2% | viability, T/C [5] 22.1% | viability, T/C [6] 12.9% | viability, T/C [7] 62.2% | viability, T/C [8] 58.3% | viability, T/C [9] 39.8% | viability, T/C [10] 25.6% | viability, T/C [11] 18.2% | viability, T/C [12] 9.44% | viability, T/C [13] 49.3% | viability, T/C [14] 37% | viability, T/C [15] 24.6% | viability, T/C [16] 31.4% | viability, T/C [17] 13.5% | viability, T/C [19] 38.1% | viability, T/C [20] 19.4% | viability, T/C [21] 24.9% | viability, T/C [22] 18.7% | viability, T/C [25] 20% | viability, T/C [26] 25.2% | viability, T/C [27] 21.1% | viability, T/C [28] 14.4% | viability, T/C [29] 17.8% | viability, T/C [31] 23.8% | viability, T/C [32] 22% | viability, T/C [33] 23.6% | viability, T/C [34] 5.75%
9.82 nM: IC50 (second compound 0.0316 µM)
< 0.999 nM: IC50 (second compound 0.316 µM) | IC50 (second compound 1 µM) | IC50 (second compound 3.16 µM) | IC50 (second compound 10 µM)
active: viability, T/C [18] 6.95% | viability, T/C [23] 13.7% | viability, T/C [24] 0.14% | viability, T/C [30] 0.15% | viability, T/C [35] 0.31% | viability, T/C [36] 0.21%
